Measured values as given in article PMC3814793, “Identification of a Plasmodium falciparum Phospholipid Transfer Protein” (The Journal of Biological Chemistry, 2013).

Legend:
Assay in all cases: radiolabelled phospholipid transfer between donor and acceptor vesicles
Assay type in all cases: biochemical
PFA0210cN123 = biological target: T1, PFA0210cN123 (Plasmodium falciparum, UniProt Q8I298); settings: labelled compound, donor vesicles PC, phosphatidic acid, N-lactosylethanolamine
T1 construct: gene PF3D7_0104200
T1 sequence (Q8I298 entry or part of it): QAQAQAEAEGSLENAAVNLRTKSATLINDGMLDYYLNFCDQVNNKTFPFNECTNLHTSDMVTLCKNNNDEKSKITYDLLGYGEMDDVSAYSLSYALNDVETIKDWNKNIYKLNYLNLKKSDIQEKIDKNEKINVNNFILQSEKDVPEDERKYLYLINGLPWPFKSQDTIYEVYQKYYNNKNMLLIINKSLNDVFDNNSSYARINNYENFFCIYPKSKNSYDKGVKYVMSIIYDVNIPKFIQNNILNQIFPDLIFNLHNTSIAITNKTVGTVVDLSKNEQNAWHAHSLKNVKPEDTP

PFA0210cN99 = biological target: T2, PFA0210cN99 (Plasmodium falciparum, UniProt Q8I298); settings: labelled compound, donor vesicles PC, phosphatidic acid, N-lactosylethanolamine
T2 construct: gene PF3D7_0104200
T2 sequence (Q8I298 entry or part of it): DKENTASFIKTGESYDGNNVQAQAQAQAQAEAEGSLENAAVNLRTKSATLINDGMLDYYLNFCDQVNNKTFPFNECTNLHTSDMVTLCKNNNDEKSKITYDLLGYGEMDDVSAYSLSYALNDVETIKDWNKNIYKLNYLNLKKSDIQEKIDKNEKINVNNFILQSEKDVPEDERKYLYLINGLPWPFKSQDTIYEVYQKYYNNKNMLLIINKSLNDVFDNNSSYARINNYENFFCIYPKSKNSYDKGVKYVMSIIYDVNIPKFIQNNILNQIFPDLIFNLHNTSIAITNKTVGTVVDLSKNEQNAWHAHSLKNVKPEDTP

[1] = biological target: T3, PITP (rat phosphatidylinositol transfer protein α) (Rattus norvegicus, UniProt P16446); settings: labelled compound; positive control protein; vesicles as in the rows above
T3 construct: gene Pitpna
T3 sequence (P16446 2-271): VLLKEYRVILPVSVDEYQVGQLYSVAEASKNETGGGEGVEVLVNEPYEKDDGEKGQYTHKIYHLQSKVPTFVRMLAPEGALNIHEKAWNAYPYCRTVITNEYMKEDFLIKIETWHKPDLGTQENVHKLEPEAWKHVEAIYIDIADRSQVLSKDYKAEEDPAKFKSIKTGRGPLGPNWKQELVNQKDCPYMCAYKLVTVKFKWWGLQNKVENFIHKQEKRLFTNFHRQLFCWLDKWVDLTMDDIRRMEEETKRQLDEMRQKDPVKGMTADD

CCCCCCCCCCCCCCCC(=O)OC[C@H](COP(=O)([O-])OCC[N+](C)(C)C)OC(=O)CCCCCCCCCCCCCCC [L-[α-dipalmitoyl-1-14C]phosphatidylcholine]
radiolabelled phospholipid transfer between donor and acceptor vesicles (PFA0210cN123): (PFA0210cN99, PFA0210cN123, and PFA0210cN144, respectively) as the N-terminal residue can transfer phospholipids | radiolabelled phospholipid transfer between donor and acceptor vesicles (PFA0210cN99): (PFA0210cN99, PFA0210cN123, and PFA0210cN144, respectively) as the N-terminal residue can transfer phospholipids | radiolabelled phospholipid transfer between donor and acceptor vesicles [1]: transferred PC at levels similar to that of the control protein PITP
